Data published in patent US20220289657A1, “COMPOSITION FOR PREVENTING OR TREATING BACTERIAL INFECTIOUS DISEASE COMPRISING 4-GINGEROL DERIVATIVE COMPOUND AS ACTIVE INGREDIENT” (KOREA UNIVERSITY RESEARCH AND BUSINESS FOUNDATION, SEJONG …, priority 2019, published 2022).
Where two headings read alike, the source gives them in different places. Marks after values point to notes of the source that are not given here.

Key:
Pseudomonas aeruginosa [1] = test: Static biofilm formation assay (crystal violet); assay type: cell-based; conditions: for activity at 10 µM / activity at 100 µM: Pseudomonas aeruginosa, 24 h, Table 3, static; for activity at 10 µM: read-out: Relative biological activity (%) Biofilm formation 10; for activity at 100 µM: read-out: Relative biological activity (%) Biofilm formation 100; for Relative biological activity (%) Biofilm formation: Table 4, concentration not given
Method: (§1) Pseudomonas aeruginosa (P. aeruginosa) (OD 595 nm=1.0) was cultured overnight, and diluted in an AB medium (1:20; 300 mM NaCl, 50 mM MgSO4, 0.2% vitamin-free casamino acids, 10 mM potassium phosphate, 1 mM L-arginine, and 1% glucose, pH 7.5) together with a positive control or compound (0100 μM) in a borosilicate bottle. The resulting mixture was incubated without shaking at 37° C. for 24 hours, and to measure growth inhibition activity. OD 595 nm of the suspended culture was measured using a multimode plate reader. Biofilm cells attached to the bottle were washed twice with phosphate-buffered saline (PBS; 137 mM NaCl, 2.7 mM KCl, 10 mM Na2HPO4, and 2 mM KH2PO4, pH 7.2). Afterward, the remaining biofilm cells were stained with 0.1% crystal violet for 10 minutes, and to remove the unbound crystal violet, washed with deionized water. The crystal violet […] to the biofilm cells was eluted with 100% ethanol, and the OD of the eluted ethanol sample was measured at 545 nm using a multimode plate reader.

P. aeruginosa = test: Rhamnolipid production assay; assay type: cell-based, Pseudomonas aeruginosa; conditions: for activity at 10 µM / activity at 100 µM: Pseudomonas aeruginosa, 24 h; for activity at 10 µM: read-out: Relative biological activity (%) Rhamnolipid production 10; for activity at 100 µM: read-out: Relative biological activity (%) Rhamnolipid production 100; for Relative biological activity (%) Rhamnolipid production: Table 4, concentration not given
Method: P. aeruginosa (OD 595 nm=1.0) cultured overnight was inoculated in an AB medium (1:100) with a positive control or compound (0100 μM), and incubated using a shaking culture for 24 hours at 37° C. The cell culture was centrifuged for 5 minutes at 4° C. and 12,000 g. Rhamnolipids were extracted twice by mixing 200 μL of a supernatant and 400 μL of 100% diethyl ether (JUNSEI, Tokyo, Japan). The supernatant was transferred to a new tube and evaporated. A dried sample was eluted with 20 μL of deionized water, and reacted with 180 μL of an Orcinal solution (0.19% Orcinal (Sigma-Aldrich) in 53% H2SO4). The reaction mixture was heated for 30 minutes at 80° C., and cooled for 15 minutes at room temperature. The amount of rhamnolipids was measured at OD 421 nm, and normalized in the cell culture solution at OD 595 nm using a multimode plate reader.

Pseudomonas aeruginosa [2] = test: Bacterial growth under static condition (OD 595 nm of suspended culture); assay type: cell-based; conditions: for activity at 10 µM / activity at 100 µM: Pseudomonas aeruginosa, 24 h, Table 3; for activity at 10 µM: read-out: Relative biological activity (%) Bacterial growth 10; for activity at 100 µM: read-out: Relative biological activity (%) Bacterial growth 100; for Relative biological activity (%) Bacterial growth: Table 4, concentration not given
Method: as §1

Pseudomonas aeruginosa [3] = test: Dynamic biofilm formation assay (drip-flow reactor, CLSM); assay type: cell-based; conditions: 48 hours, 10 μM, smaller volume and thickness than control
Method: Glass slides were placed in a drip-flow reactor, and an AB medium containing 5% P. aeruginosa (OD 595 nm=1.0) was added along with a positive control or compound (0 to 10 μM) and the reactor was continuously operated using peristaltic pumps (Masterflex C/L tubing pumps, Cole-Parmer, Ill., USA) at 0.3 ml/min. After the above-described process was carried out at 37° C. for 48 hours, unattached biofilm cells were removed with PBS. The remaining biofilm cells were stained with DAPI (Sigma-Aldrich) for 10 minutes, and observed by confocal laser scanning microscopy (CLSM; Carl Zeiss LSM700, Jena, Germany). The CLSM image of the biofilm cells was obtained with a 20× objective lens (W NAchroplanX20/0.5W (DIC) M27) under blue fluorescence light (excitation wavelength: 350 nm, emission wavelength: 470 nm) using a Z-stack mode of the Zen 2011 program. The volume and thickness of the biofilm were measured using Comstat2 of the ImageJ program based on a CLSM image.

RhlR = target: T1, RhlR (Pseudomonas aeruginosa, UniProt P54292); test: cell-based; conditions: for Relative RhIR Activity (%) Agonism 100 / Relative RhIR Activity (%) Agonism 1000: Table 3; for Relative RhIR Activity (%) Agonism 1000: 1000 (μM); for Relative RhIR activity (%) Agonism / Relative RhIR activity (%) Antagonism: Table 4, concentration not given; for IC50: dose-response, FIG. 6A, different concentrations (0 to 100 μM); for remaining activity at 10 µM: read-out: Relative RhIR Activity (%) Antagonism 10, Table 3; for activity at 100 µM: read-out: Relative RhlR activity Agonism, Table 2
T1 construct: expressed in transfected cells; host or cells: E. coli sdiA variant co-transformed with pJN105R and pSC11 (RhlA::lacZ)
Method: Escherichia coli (E. coli) DH5a includes LuxR homolog SdiA detecting endogenous AHL synthesized by other microbial species, particularly, BHL.
(§2) For RhlR reporter strain analysis, the present invention used pJN105R (RhlR expression plasmid), anspSC11 (RhlA::lacZ fusion plasmid) and an sdiA variant co-transformed with the two plasmids. 1% of an overnight-cultured reporter strain (OD 595 nm=1.0) supplemented with 10 μg/mL gentamicin and 50 μg/mL ampicillin was cultured in a Luria-Bertani (LB) medium (Difco, Detroit, Mich., USA) with a positive control or a compound (0-1000 μM) and BHL (0-10 μM) (Sigma-Aldrich) at 37° C. for 2 hours. 0.4% arabinose (Sigma-Aldrich) was reacted with the resulting product at 37° C. for 1.5 hours. β-galactosidase activity was evaluated using a Tropix plus kit (Applied Biosystems, CA, USA), and OD 595 nm and luminescence were measured using a VICTOR x5 multimode plate reader (PerkinElmer, Waltham, Mass., USA). Relative RhlR activity was quantified by measuring luminescence at OD 595 nm. In addition, for LasR reporter strain analysis, the present invention used pJN105L (LasR expression plasmid) and pSC11 (lasI::lacZ fusion plasmid), E. coli DH5a co-transformed with the two plasmids, and OdDHL (Sigma-Aldrich).

LasR = target: T2, LasR (Pseudomonas aeruginosa, UniProt P25084); test: QS reporter strain assay, LasR (lasI::lacZ); assay type: cell-based; conditions: 0.1 and 10 μM; FIG. 6C
T2 construct: expressed in transfected cells; host or cells: E. coli DH5a co-transformed with pJN105L and pSC11 (lasI::lacZ)
Method: as §2

[4] = Table 2, footnotes not given, 100 μM per Table 3, lower = stronger antagonism
[5] = read-out: Relative RhIR Activity (%) Antagonism 100, Table 3, 100 (μM)
[6] = footnotes not given, matches the 100 column of Table 3
[7] = read-out: Relative RhlR activity Antagonism, Table 2, footnotes not given, 100 μM per Table 3, lower = stronger antagonism

T1 sequence (P54292 whole entry): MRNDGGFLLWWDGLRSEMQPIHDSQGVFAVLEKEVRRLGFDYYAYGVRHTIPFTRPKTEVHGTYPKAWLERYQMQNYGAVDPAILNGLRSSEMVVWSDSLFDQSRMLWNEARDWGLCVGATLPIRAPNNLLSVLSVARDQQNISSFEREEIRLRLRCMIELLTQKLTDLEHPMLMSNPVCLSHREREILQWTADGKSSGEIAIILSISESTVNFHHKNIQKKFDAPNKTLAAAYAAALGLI
T2 sequence (P25084 whole entry): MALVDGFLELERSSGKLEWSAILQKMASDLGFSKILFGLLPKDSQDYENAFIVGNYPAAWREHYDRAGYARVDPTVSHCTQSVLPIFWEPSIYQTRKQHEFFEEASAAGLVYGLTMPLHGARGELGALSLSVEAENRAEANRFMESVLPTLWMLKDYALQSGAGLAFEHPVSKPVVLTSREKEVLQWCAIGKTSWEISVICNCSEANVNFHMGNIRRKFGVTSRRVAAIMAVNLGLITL

SMILES | activity at 10 µM (Pseudomonas aeruginosa [1]) | activity at 100 µM (Pseudomonas aeruginosa [1]) | Relative biological activity (%) Biofilm formation (Pseudomonas aeruginosa [1]) | Relative biological activity (%) Rhamnolipid production (P. aeruginosa) | activity at 10 µM (Pseudomonas aeruginosa [2]) | activity at 100 µM (Pseudomonas aeruginosa [2]) | Relative RhlR activity Antagonism (RhlR; [4]) | Relative RhIR Activity (%) Agonism 100 (RhlR; 100 (μM)) | Relative RhIR Activity (%) Agonism 1000 (RhlR) | Relative RhIR activity (%) Agonism (RhlR) | remaining activity at 10 µM (RhlR) | remaining activity at 100 µM (RhlR; [5]) | activity at 100 µM (RhlR; [6]) | remaining activity at 100 µM (RhlR; [7]) | activity at 10 µM (P. aeruginosa; Table 3, 10 (μM)) | activity at 100 µM (P. aeruginosa; Table 3, 100 (μM)) | Relative biological activity (%) Bacterial growth (Pseudomonas aeruginosa [2]) | Relative RhIR activity (%) Antagonism (RhlR) | other results
CCCC(=O)NC1CCCC1 [Compound 1d, N-cyclopentylbutyramide, reference compound] | 84% | 69% | 81* % | 68* % | 95% | 98% | 54** % | 4** % | 37% | 4** % | 74% | 54% | 4% | 54% | – | – | – | – | activity at 10 µM (P. aeruginosa): 58%; activity at 100 µM (P. aeruginosa): 45%; biofilm appearance under flow condition vs control (Pseudomonas aeruginosa [3]): thinner and more dispersed biofilm; IC50 (RhlR): 86 µM
CCCC(O)CC(=O)CCc1ccc(O)c(OC)c1 (stereo not drawn) [Compound 12a, 5-Hydroxy-1-(4-hydroxy-3-methoxyphenyl)octan-3-one] | – | – | – | – | – | – | 69** % | – | – | – | – | – | – | – | – | – | – | – | LasR antagonistic activity (LasR): no LasR antagonistic activity; Relative RhlR activity Agonism (RhlR; Table 2, footnotes not given, matches the 100 column of Table 3): 4** %; IC50 (RhlR): 218 µM
CCC[C@@H](O)C#Cc1ccc(F)c(F)c1 [Compound 33b, (R)-1-(3,4-Difluorophenyl)hex-1-yn-3-ol] | 74% | 60% | – | – | 98% | 102% | – | 3** % | 5** % | – | 45% | 25% | 3% | 25% | 60% | 48% | – | – | –
CCC[C@H](O)C#Cc1ccc(F)c(F)c1 [Compound 33c, (S)-1-(3,4-Difluorophenyl)hex-1-yn-3-ol] | 79% | 64% | – | – | 98% | 99% | – | 3** % | 5** % | – | 59% | 38% | 3% | 38% | 59% | 52% | – | – | –
CCCCC[C@H](O)C#Cc1ccc(O)c(OC)c1 [Compound 23c, (S)-4-(3-Hydroxyoct-1-yn-1-yl)-2-methoxyphenol] | – | – | 67* % | 86% | – | – | 34** % | – | – | 3** % | – | – | 3% | 34% | – | – | 104% | 34** % | –
CCCCCCCCC(O)CC(=O)CCc1ccc(O)c(OC)c1 (stereo not drawn) [Compound 7, 5-Hydroxy-1-(4-hydroxy-3-methoxyphenyl)tridecan-3-one] | – | – | 79** % | 69* % | – | – | – | – | – | 2** % | – | – | 2% | 41% | – | – | 89% | 41** % | –
CCCC(O)CC(=O)/C=C/c1ccc(O)c(OC)c1 (stereo not drawn) [Compound 11a, (E)-5-Hydroxy-1-(4-hydroxy-3-methoxyphenyl)oct-1-en-3-one] | 82% | 65% | 81* % | 67* % | 102% | 95% | 65** % | 4** % | 5** % | 4** % | 73% | 65% | 4% | 65% | 73% | 57% | 101% | – | –
CCCCCC(=O)C#Cc1ccc(O)c(OC)c1 [Compound 21, 1-(4-Hydroxy-3-methoxyphenyl)oct-1-yn-3-one] | – | – | 72* % | 81* % | – | – | 29** % | – | – | 3** % | – | – | 3% | 29% | – | – | 102% | 29** % | –
CCCCCC(O)C#Cc1ccc(O)c(OC)c1 (racemic) [Compound 23a, 4-(3-Hydroxyoct-1-yn-1-yl)-2-methoxyphenol] | – | – | 80* % | 85% | – | – | 32** % | – | – | 3** % | – | – | 3% | 32% | – | – | 98% | 32** % | –
CCCC(O)CC(=O)/C=C/c1ccc(O)cc1 (stereo not drawn) [Compound 11d, (E)-5-Hydroxy-1-(4-hydroxyphenyl)oct-1-en-3-one] | – | – | 74* % | 83% | – | – | 51** % | – | – | 1** % | – | – | 1% | 51% | – | – | 105% | 51** % | –
